Results from patent US9499548B2, “Inhibitors of bruton's tyrosine kinase” (Hoffmann-La Roche Inc., priority 2012, dated 2016).

Test system: B cell receptor-mediated activation of B cells in human blood (CD69 expression)
Assay: Inhibition of B cell activation in whole blood measured by CD69 expression
Type: cell-based
Details: anti-IgM stimulation, 20 hours, concentration decreasing by 50% the CD69-positive cells that are also CD20-positive
Method: Inhibition of B Cell Activation in Whole Blood Measured by CD69 Expression
A procedure to test the ability of Btk inhibitors to suppress B cell receptor-mediated activation of B cells in human blood is as follows:
Human whole blood (HWB) is obtained from healthy volunteers, with the following restrictions: 24 hr drug-free, non-smokers. Blood is collected by venipuncture into Vacutainer tubes anticoagulated with sodium heparin. Test compounds are diluted to ten times the desired starting drug concentration in PBS (20×), followed by three-fold serial dilutions in 10% DMSO in PBS to produce a nine point dose-response curve. 5.5 μl of each compound dilution is added in duplicate to a 2 ml 96-well V bottom plate (Analytical Sales and Services, #59623-23); 5.5 μl of 10% DMSO in PBS is added to control and no-stimulus wells. HWB (100 μl) is added to each well, and after mixing the plates are incubated at 37 C, 5% CO2, 100% humidity for 30 minutes. Goat F(ab′)2 anti-human IgM (Southern Biotech, #2022-14) (10 μl of a 500 μg/ml solution, 50 μg/ml final concentration) is added to each well (except the no-stimulus wells) with mixing and the plates are incubated for an additional 20 hours.
At the end of the 20 hour incubation, samples are incubated with florescent-probe-labeled antibodies (15 μl PE Mouse anti-Human CD20, BD Pharmingen, #555623, and/or 20 ul APC Mouse anti-Human CD69, BD Pharmingen #555533) for 30 minutes, at 37 C, 5% CO2, 100% humidity. Included are induced control, unstained and single stains for compensation adjustments and initial voltage settings. Samples are then lysed with 1 ml of 1× Pharmingen Lyse Buffer (BD Pharmingen #555899), and plates are centrifuged at 1800 rpm for 5 minutes. Supernatants are removed via suction and the remaining pellets are lysed again with another 1 ml of 1× Pharmingen Lyse Buffer, and plates are spun down as before. Supernatants are aspirated and remaining pellets are washed in FACs buffer (PBS+1% FBS). After a final spin, the supernatants are removed and pellets are resuspended in 180 μl of FACs buffer. Samples are transferred to a 96 well plate suitable to be run on the HTS 96 well system on the BD LSR II flow cytometer.
Using appropriate excitation and emission wavelengths for the fluorophores used, data are acquired and percent positive cell values are obtained using Cell Quest Software. Results are initially analyzed by FACS analysis software (Flow Jo). […] The IC50 values are calculated using XLfit software version 3, equation 201.
Representative compound data for this assay are listed below in Table II.

Row | Structure (SMILES) | IC50 [nM]
1 | Cn1nc(-c2cccc(-n3ncc4cc(C(C)(C)C)ccc4c3=O)c2CO)cc(Nc2ccc(OC(C)(C)CN3CCC3)cn2)c1=O [Compound I-1, 2-(3-{5-[5-(2-Azetidin-1-yl-1,1-dimethyl-ethoxy)-pyridin-2-ylamino]-1-methyl-6-oxo-1,6-dihydro-pyridazin-3-yl}-2-hydroxymethyl-phenyl)-6-tert-butyl-2H-phthalazin-1-one] | 6
2 | CN1CCC(c2ccc(Nc3cc(-c4cccc(-n5ncc6cc(C(C)(C)C)ccc6c5=O)c4CO)nn(C)c3=O)nc2)CC1 [Compound I-2, 6-tert-Butyl-2-{2-hydroxymethyl-3-[1-methyl-5-(1′-methyl-1′,2′,3′,4′,5′,6′-hexahydro-[3,4′]bipyridinyl-6-ylamino)-6-oxo-1,6-dihydro-pyridazin-3-yl]-phenyl}-2H-phthalazin-1-one] | 10
3 | Cn1nc(Nc2cc(-c3cccc(-n4ncc5cc(C(C)(C)C)ccc5c4=O)c3CO)nn(C)c2=O)cc1CN1CCC1 [Compound I-3, 2-{3-[5-(5-Azetidin-1-ylmethyl-1-methyl-1H-pyrazol-3-ylamino)-1-methyl-6-oxo-1,6-dihydro-pyridazin-3-yl]-2-hydroxymethyl-phenyl}-6-tert-butyl-2H-phthalazin-1-one] | 30
4 | CN1CCC[C@H]1c1ccc(Nc2cc(-c3cccc(-n4ncc5cc(C(C)(C)C)ccc5c4=O)c3CO)nn(C)c2=O)nc1 [Compound I-4, 6-tert-Butyl-2-(2-hydroxymethyl-3-{1-methyl-5-[5-((S)-1-methyl-pyrrolidin-2-yl)-pyridin-2-ylamino]-6-oxo-1,6-dihydro-pyridazin-3-yl}-phenyl)-2H-phthalazin-1-one] | 32
5 | CN1CC[C@@H](c2ccc(Nc3cc(-c4cccc(-n5ncc6cc(C(C)(C)C)ccc6c5=O)c4CO)nn(C)c3=O)nc2)C1 [Compound I-5, 6-tert-Butyl-2-(2-hydroxymethyl-3-{1-methyl-5-[5-((S)-1-methyl-pyrrolidin-3-yl)-pyridin-2-ylamino]-6-oxo-1,6-dihydro-pyridazin-3-yl}-phenyl)-2H-phthalazin-1-one] | 35
6 | CN1CC[C@H](c2ccc(Nc3cc(-c4cccc(-n5ncc6cc(C(C)(C)C)ccc6c5=O)c4CO)nn(C)c3=O)nc2)C1 [Compound I-6, 6-tert-Butyl-2-(2-hydroxymethyl-3-{1-methyl-5-[5-((R)-1-methyl-pyrrolidin-3-yl)-pyridin-2-ylamino]-6-oxo-1,6-dihydro-pyridazin-3-yl}-phenyl)-2H-phthalazin-1-one] | 36
7 | CN1CCC(c2ccc(Nc3cc(-c4cccc(-n5ncc6cc(C(C)(C)C#N)ccc6c5=O)c4CO)nn(C)c3=O)nc2)CC1 [Compound I-7, 2-(2-{2-Hydroxymethyl-3-[1-methyl-5-(1′-methyl-1′,2′,3′,4′,5′,6′-hexahydro-[3,4′]bipyridinyl-6-ylamino)-6-oxo-1,6-dihydro-pyridazin-3-yl]-phenyl}-1-oxo-1,2-dihydro-phthalazin-6-yl)-2-methyl-propionitrile] | 38
8 | CN1CCn2nc(Nc3cc(-c4cccc(-n5ncc6cc(C(C)(C)C)ccc6c5=O)c4CO)nn(C)c3=O)cc2C1 [Compound I-8, 6-tert-Butyl-2-{2-hydroxymethyl-3-[1-methyl-5-(5-methyl-4,5,6,7-tetrahydro-pyrazolo[1,5-a]pyrazin-2-ylamino)-6-oxo-1,6-dihydro-pyridazin-3-yl]-phenyl}-2H-phthalazin-1-one] | 42
9 | CCN1CCC(c2ccc(Nc3cc(-c4cccc(-n5ncc6cc(C(C)(C)C)ccc6c5=O)c4CO)nn(C)c3=O)nc2)CC1 [Compound I-9, 6-tert-Butyl-2-{3-[5-(1′-ethyl-1′,2′,3′,4′,5′,6′-hexahydro-[3,4′]bipyridinyl-6-ylamino)-1-methyl-6-oxo-1,6-dihydro-pyridazin-3-yl]-2-hydroxymethyl-phenyl}-2H-phthalazin-1-one] | 45
10 | Cn1nc(-c2cccc(-n3ncc4cc(C(C)(C)C)ccc4c3=O)c2CO)cc(Nc2ccc(C(=O)N3CCOCC3)cn2)c1=O [Compound I-10, 6-tert-Butyl-2-(2-hydroxymethyl-3-{1-methyl-5-[5-(morpholine-4-carbonyl)-pyridin-2-ylamino]-6-oxo-1,6-dihydro-pyridazin-3-yl}-phenyl)-2H-phthalazin-1-one] | 47
11 | Cn1nc(-c2cccc(-n3ncc4cc(C(C)(C)C#N)ccc4c3=O)c2CO)cc(Nc2ccc(OC(C)(C)CN3CCC3)cn2)c1=O [Compound I-11, 2-[2-(3-{5-[5-(2-Azetidin-1-yl-1,1-dimethyl-ethoxy)-pyridin-2-ylamino]-1-methyl-6-oxo-1,6-dihydro-pyridazin-3-yl}-2-hydroxymethyl-phenyl)-1-oxo-1,2-dihydro-phthalazin-6-yl]-2-methyl-propionitrile] | 135
12 | Cn1nc(-c2cccc(-n3ncc4cc(C(C)(C)C)ccc4c3=O)c2CO)cc(Nc2ccc(OC(C)(C)CNCCCO)cn2)c1=O [Compound I-12, 6-tert-Butyl-2-[2-hydroxymethyl-3-(5-{5-[2-(3-hydroxy-propylamino)-1,1-dimethyl-ethoxy]-pyridin-2-ylamino}-1-methyl-6-oxo-1,6-dihydro-pyridazin-3-yl)-phenyl]-2H-phthalazin-1-one] | 187
13 | Cn1nc(-c2cccc(-n3ncc4cc(C(C)(C)C)ccc4c3=O)c2CO)cc(Nc2ccc(C3CCN(C4COC4)CC3)cn2)c1=O [Compound I-13, 6-tert-Butyl-2-{2-hydroxymethyl-3-[1-methyl-5-(1′-oxetan-3-yl-1′,2′,3′,4′,5′,6′-hexahydro-[3,4′]bipyridinyl-6-ylamino)-6-oxo-1,6-dihydro-pyridazin-3-yl]-phenyl}-2H-phthalazin-1-one] | 188
14 | Cn1nc(-c2cccc(-n3ncc4cc(C(C)(C)C)ccc4c3=O)c2CO)cc(Nc2ccc(OC(C)(C)CN3CC(F)(F)C3)cn2)c1=O [Compound I-14, 6-tert-Butyl-2-[3-(5-{5-[2-(3,3-difluoro-azetidin-1-yl)-1,1-dimethyl-ethoxy]-pyridin-2-ylamino}-1-methyl-6-oxo-1,6-dihydro-pyridazin-3-yl)-2-hydroxymethyl-phenyl]-2H-phthalazin-1-one] | 573
15 | CN1CCC(c2ccc(Nc3cc(-c4cccc(N5CCc6cc(C(C)(C)C#N)ccc6C5=O)c4CO)nn(C)c3=O)nc2)CC1 [Compound I-15, 2-(2-{2-Hydroxymethyl-3-[1-methyl-5-(1′-methyl-1′,2′,3′,4′,5′,6′-hexahydro-[3,4′]bipyridinyl-6-ylamino)-6-oxo-1,6-dihydro-pyridazin-3-yl]-phenyl}-1-oxo-1,2,3,4-tetrahydro-isoquinolin-6-yl)-2-methyl-propionitrile] | 198
